Where “and” joins values, the source holds several entries; their conditions need not be identical. Equal values may be shown once.
Columns and labels:
Format in all cases: biochemical
EGFR = target: T1, EGFR (Homo sapiens, UniProt P00533); test: Kinase inhibition assay (33P transfer), EGFR; settings: Table 2, class symbols A-E; read-out: EGFR-1
T1 construct: Kinases are expressed as either kinase domains or full length constructs; made in house
Outline: (§1)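 Read-out: scintillation counts of 33P moved from ATP onto synthetic peptide polymer coated on the well surface, after washing with 0.5% phosphoric acid. Enzymes were tagged (GST or polyHistidine) and came from bacterial or insect-cell expression. IC50 marks 50% loss of incorporated label.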

Kdr = target: T2, Kdr (Homo sapiens, UniProt P35968); test: Kinase inhibition assay (33P transfer), Kdr; settings: Table 3, class symbols; read-out: KDR-1
T2 construct: Kinases are expressed as either kinase domains or full length constructs; made in house
T2 sequence (P35968 20-1356, species assumed): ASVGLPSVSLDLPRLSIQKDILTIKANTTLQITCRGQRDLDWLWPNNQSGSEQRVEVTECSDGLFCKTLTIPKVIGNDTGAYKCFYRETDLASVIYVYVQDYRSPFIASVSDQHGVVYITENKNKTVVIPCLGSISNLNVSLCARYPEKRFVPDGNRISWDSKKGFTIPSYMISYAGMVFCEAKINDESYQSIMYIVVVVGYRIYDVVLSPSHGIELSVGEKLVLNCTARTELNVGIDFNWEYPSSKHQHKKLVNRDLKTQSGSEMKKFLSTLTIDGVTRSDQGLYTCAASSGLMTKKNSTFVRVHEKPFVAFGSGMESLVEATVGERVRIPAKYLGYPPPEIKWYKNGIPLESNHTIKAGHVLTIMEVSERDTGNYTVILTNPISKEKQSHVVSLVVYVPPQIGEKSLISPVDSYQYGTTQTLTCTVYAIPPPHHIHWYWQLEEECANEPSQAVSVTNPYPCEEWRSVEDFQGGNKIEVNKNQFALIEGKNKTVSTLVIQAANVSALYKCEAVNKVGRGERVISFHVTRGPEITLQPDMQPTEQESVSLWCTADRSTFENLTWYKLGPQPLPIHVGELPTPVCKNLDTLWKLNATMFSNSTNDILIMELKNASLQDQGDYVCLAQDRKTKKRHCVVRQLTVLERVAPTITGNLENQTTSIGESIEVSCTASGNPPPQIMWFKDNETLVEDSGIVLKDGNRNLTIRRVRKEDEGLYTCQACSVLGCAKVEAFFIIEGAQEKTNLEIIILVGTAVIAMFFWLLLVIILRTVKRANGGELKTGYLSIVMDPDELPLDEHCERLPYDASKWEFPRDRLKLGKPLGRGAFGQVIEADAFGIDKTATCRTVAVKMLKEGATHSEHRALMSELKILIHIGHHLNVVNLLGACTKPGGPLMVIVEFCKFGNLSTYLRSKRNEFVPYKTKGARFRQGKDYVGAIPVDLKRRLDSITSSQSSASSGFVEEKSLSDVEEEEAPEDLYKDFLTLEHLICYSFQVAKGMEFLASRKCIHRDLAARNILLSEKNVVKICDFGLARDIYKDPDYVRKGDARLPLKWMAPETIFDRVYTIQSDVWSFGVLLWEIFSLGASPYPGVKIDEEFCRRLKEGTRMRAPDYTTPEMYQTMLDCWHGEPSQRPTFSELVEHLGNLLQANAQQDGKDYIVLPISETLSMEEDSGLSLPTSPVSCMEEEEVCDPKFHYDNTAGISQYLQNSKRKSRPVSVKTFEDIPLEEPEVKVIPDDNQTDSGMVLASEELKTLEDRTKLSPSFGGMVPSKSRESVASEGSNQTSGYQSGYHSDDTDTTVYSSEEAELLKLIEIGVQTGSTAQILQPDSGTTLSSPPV
Outline: (§2)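 Steps: express kinase as GST or polyHistidine fusion in E. coli or High Five cells; optionally co-express or mix with regulatory polypeptides; incubate with 33P-ATP and plate-attached poly(Glu,Tyr) 4:1 or poly(Arg,Ser) 3:1; wash with 0.5% phosphoric acid; count by liquid scintillation.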

PDGFRB = target: T3, PDGFRB (Homo sapiens, UniProt P09619); test: Kinase inhibition assay (33P transfer), PDGFRB; settings: read-out: PDGFRB-1
T3 construct: Kinases are expressed as either kinase domains or full length constructs; made in house
T3 sequence (P09619 33-1106, species assumed): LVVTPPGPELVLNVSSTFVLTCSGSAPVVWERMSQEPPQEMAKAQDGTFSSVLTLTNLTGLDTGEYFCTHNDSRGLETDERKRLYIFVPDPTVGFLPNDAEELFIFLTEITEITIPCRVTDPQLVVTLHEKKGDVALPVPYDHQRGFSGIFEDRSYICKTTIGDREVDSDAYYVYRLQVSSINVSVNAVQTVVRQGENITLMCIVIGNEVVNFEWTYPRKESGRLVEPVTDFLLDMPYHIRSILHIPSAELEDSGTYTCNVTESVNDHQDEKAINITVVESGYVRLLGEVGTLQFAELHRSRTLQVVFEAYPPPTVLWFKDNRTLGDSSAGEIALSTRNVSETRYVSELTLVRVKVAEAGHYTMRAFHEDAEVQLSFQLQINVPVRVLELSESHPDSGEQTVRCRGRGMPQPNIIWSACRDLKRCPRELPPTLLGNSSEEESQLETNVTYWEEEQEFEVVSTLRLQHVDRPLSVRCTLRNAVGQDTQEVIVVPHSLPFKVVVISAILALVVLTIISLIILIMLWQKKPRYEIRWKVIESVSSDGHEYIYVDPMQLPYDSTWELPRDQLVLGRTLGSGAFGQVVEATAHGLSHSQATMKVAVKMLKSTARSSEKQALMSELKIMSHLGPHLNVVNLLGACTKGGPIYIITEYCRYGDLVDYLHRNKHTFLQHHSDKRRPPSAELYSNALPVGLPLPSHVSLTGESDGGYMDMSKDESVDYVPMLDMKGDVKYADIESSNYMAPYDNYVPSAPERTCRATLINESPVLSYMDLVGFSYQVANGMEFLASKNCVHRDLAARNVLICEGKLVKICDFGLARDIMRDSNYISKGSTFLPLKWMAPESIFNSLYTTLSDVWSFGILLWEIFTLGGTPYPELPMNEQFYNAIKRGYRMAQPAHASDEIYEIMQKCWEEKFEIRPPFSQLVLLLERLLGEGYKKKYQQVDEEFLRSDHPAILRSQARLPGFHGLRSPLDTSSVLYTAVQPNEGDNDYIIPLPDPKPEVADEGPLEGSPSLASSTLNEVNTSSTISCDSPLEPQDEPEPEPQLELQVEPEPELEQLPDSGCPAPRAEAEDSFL

Itk = target: T4, Itk (Homo sapiens, UniProt Q08881); test: Kinase inhibition assay (33P transfer), Itk; settings: Table 3, class symbols; read-out: Itk-1
T4 construct: Kinases are expressed as either kinase domains or full length constructs; made in house
T4 sequence (Q08881 1-620): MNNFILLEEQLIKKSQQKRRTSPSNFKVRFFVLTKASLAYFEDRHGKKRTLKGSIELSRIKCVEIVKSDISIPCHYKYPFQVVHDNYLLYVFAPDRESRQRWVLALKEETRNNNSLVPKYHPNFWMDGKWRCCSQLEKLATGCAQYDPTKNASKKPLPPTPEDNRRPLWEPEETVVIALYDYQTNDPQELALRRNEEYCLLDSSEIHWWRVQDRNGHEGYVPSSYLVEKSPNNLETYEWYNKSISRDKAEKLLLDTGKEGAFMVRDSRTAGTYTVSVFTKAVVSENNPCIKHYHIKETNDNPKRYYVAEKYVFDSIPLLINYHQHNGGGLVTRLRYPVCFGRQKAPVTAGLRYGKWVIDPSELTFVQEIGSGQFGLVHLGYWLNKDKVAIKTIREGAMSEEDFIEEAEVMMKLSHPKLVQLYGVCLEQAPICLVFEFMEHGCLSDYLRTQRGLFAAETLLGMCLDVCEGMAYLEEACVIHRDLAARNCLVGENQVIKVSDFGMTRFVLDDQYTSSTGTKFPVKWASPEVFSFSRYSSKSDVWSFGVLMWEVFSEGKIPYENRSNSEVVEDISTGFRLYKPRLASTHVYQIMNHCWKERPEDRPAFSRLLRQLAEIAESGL
Outline: as §1

ErbB2 = target: T5, ErbB2 (Homo sapiens, UniProt P04626); test: Kinase inhibition assay (33P transfer), ErbB2; settings: read-out: ErbB2-2
T5 construct: Kinases are expressed as either kinase domains or full length constructs; made in house
Outline: as §1

IGFR-1 = target: T6, IGFR-1 (Homo sapiens, UniProt P08069); test: Kinase inhibition assay (33P transfer), IGFR-1; settings: Table 2, class symbols A-E
T6 construct: Kinases are expressed as either kinase domains or full length constructs; made in house
T6 sequence (P08069 31-1367): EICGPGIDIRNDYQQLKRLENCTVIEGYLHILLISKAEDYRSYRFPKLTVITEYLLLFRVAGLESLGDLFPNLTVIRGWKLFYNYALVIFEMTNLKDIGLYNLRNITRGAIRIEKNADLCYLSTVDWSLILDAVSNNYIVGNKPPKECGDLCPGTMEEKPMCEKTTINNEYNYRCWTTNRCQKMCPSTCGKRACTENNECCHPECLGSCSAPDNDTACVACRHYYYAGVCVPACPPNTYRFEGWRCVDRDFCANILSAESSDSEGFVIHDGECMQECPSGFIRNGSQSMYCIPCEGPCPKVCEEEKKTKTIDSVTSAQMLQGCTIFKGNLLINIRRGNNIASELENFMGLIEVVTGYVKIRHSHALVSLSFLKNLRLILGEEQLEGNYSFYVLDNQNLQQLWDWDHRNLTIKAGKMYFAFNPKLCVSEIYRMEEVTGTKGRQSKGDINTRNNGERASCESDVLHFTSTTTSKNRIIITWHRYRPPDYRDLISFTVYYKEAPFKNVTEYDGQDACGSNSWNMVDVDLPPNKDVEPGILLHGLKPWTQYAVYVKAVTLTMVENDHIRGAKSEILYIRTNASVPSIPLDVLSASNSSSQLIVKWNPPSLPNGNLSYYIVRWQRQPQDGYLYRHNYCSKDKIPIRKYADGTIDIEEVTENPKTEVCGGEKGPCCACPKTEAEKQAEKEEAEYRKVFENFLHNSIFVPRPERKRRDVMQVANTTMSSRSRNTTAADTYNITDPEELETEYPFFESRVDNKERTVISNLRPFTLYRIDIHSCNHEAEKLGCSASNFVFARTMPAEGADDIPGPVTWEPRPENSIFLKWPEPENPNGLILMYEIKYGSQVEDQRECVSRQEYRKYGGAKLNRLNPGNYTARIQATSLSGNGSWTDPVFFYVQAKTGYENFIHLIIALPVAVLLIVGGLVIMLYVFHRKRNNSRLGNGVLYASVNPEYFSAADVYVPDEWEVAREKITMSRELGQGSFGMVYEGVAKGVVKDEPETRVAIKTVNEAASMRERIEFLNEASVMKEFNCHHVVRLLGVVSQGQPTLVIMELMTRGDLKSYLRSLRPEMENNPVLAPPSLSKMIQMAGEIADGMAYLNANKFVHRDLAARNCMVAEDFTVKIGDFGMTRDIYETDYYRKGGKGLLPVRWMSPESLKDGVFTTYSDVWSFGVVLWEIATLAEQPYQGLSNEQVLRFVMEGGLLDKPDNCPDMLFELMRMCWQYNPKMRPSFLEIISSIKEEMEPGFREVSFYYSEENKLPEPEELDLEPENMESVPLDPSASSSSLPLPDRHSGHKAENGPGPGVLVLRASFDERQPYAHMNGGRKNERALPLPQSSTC

AKT = target: T7, AKT (Homo sapiens, UniProt Q9Y243); test: Kinase inhibition assay (33P transfer), AKT; settings: Table 2, class symbols A-E; read-out: AKT3-1
T7 construct: Kinases are expressed as either kinase domains or full length constructs; made in house
Outline: as §2

Zap-70 = target: T8, Zap-70 (Homo sapiens, UniProt P43403); test: Kinase inhibition assay (33P transfer), Zap-70; settings: Table 3, class symbols; read-out: Zap-1
T8 construct: Kinases are expressed as either kinase domains or full length constructs; made in house
T8 sequence (P43403 1-619): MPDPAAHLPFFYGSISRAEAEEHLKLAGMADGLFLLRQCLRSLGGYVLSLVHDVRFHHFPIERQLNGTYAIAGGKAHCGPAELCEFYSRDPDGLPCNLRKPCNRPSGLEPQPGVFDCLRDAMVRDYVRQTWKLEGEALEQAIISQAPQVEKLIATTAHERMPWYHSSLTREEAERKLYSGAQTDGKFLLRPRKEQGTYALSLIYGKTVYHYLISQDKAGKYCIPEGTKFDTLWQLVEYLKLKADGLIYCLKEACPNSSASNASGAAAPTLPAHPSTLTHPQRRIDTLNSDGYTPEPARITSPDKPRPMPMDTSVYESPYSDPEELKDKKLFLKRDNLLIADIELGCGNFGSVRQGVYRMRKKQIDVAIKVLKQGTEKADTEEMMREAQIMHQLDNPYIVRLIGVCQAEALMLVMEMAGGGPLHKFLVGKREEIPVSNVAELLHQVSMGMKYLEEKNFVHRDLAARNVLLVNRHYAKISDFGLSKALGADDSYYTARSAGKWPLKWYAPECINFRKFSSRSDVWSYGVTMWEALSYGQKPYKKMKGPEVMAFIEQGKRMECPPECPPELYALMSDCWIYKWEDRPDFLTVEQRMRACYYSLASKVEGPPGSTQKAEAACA
Outline: as §2

Lck = target: T9, Lck (Homo sapiens, UniProt P06239); test: Kinase inhibition assay (33P transfer), Lck; settings: Table 3, class symbols; read-out: Lck-1
T9 construct: Kinases are expressed as either kinase domains or full length constructs; made in house
Outline: as §2

c-Met = target: T10, c-Met (Homo sapiens, UniProt P08581); test: Kinase inhibition assay (33P transfer), c-Met; settings: Table 2, class symbols A-E; read-out: Met-1
T10 construct: Kinases are expressed as either kinase domains or full length constructs; made in house
Outline: as §1

T1 sequence (P00533 25-1210, species assumed): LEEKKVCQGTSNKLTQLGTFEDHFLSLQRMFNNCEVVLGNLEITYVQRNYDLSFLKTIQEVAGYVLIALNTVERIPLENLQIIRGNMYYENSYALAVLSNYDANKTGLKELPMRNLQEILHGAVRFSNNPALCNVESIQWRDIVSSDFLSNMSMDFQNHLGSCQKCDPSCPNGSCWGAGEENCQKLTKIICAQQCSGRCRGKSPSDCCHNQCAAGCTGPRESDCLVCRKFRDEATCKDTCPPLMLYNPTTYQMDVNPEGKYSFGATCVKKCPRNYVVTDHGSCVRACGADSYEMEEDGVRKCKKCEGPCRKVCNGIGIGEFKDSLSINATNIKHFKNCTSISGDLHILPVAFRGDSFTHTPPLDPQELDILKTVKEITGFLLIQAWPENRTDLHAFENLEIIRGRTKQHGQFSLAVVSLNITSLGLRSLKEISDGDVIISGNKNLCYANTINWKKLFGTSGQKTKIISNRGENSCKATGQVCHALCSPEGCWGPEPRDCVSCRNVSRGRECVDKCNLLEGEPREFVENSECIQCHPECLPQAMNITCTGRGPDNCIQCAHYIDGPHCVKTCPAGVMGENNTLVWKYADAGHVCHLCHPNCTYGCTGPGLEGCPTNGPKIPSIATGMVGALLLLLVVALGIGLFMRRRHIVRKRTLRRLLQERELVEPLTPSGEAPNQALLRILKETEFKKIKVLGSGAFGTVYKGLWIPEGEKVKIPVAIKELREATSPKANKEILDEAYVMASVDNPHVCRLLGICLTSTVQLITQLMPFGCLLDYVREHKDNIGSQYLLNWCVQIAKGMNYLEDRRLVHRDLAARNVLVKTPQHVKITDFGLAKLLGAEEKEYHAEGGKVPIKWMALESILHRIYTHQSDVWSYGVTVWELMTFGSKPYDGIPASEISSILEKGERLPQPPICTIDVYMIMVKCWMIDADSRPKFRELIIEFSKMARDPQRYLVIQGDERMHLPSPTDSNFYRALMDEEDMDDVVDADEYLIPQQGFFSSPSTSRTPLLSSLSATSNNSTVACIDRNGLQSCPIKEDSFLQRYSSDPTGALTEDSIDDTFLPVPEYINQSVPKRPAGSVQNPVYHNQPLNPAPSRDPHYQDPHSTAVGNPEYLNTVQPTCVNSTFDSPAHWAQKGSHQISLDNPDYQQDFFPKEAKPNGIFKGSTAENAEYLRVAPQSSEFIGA

Row | SMILES | IC50 (EGFR) | IC50 (Kdr) | IC50 (PDGFRB) | IC50 (Itk) | IC50 (ErbB2) | IC50 (IGFR-1) | IC50 (AKT) | IC50 (Zap-70) | IC50 (Lck) | IC50 (c-Met)
1 | CC(C)Nc1ncccc1-c1ncnc(Nc2cccc(CC(=O)O)c2)n1 [Compound 1097] | > 12.3 µM | 1.1 to 6.59 µM | < 1.1 µM | > 12.3 µM | > 12.3 µM | > 12.3 µM | > 12.3 µM | 6.59 to 9.6 µM | 1.1 to 6.59 µM | 6.59 to 9.6 µM
2 | CC(C)Nc1ncccc1-c1ncnc(Nc2cccc(Cn3ccnn3)c2)n1 [Compound 1098] | 6.19 to 9.03 µM | 1.03 to 6.19 µM | 1.03 to 6.19 µM | 1.03 to 6.19 µM | > 11.6 µM | > 11.6 µM | 6.19 to 9.03 µM | > 11.6 µM | 1.03 to 6.19 µM | 6.19 to 9.03 µM
3 | O=C(O)Cc1cccc(Nc2ncnc(-c3cccnc3NCc3ccccc3)n2)c1 [Compound 1099] | < 0.97 µM | < 0.97 µM | < 0.97 µM | > 10.9 µM | 0.97 to 5.82 µM | > 10.9 µM | > 10.9 µM | > 10.9 µM | 0.97 to 5.82 µM | 0.97 to 5.82 µM
4 | O=C(O)Cc1cccc(Nc2ncnc(-c3cccnc3NCc3ccc(F)cc3)n2)c1 [Compound 1100] | 0.929 to 5.58 µM | < 0.929 µM | < 0.929 µM | > 10.5 µM | 0.929 to 5.58 µM | > 10.5 µM | > 10.5 µM | > 10.5 µM | 8.13 to 10.5 µM | 8.13 to 10.5 µM

Further lines, results first:

Row | IC50 (EGFR) | IC50 (Kdr) | IC50 (PDGFRB) | IC50 (Itk) | IC50 (ErbB2) | IC50 (IGFR-1) | IC50 (AKT) | IC50 (Zap-70) | IC50 (Lck) | IC50 (c-Met) | SMILES
5 | 0.918 to 5.51 µM | < 0.918 µM | < 0.918 µM | 5.51 to 8.04 µM | > 10.3 µM | > 10.3 µM | > 10.3 µM | > 10.3 µM | 5.51 to 8.04 µM | 5.51 to 8.04 µM | c1ccc(CNc2ncccc2-c2ncnc(Nc3cccc(Cn4ccnn4)c3)n2)cc1 [Compound 1101]
6 | 5.29 to 7.72 µM | < 0.882 µM | < 0.882 µM | > 9.92 µM | > 9.92 µM | > 9.92 µM | > 9.92 µM | 7.72 to 9.92 µM | > 9.92 µM | > 9.92 µM | Fc1ccc(CNc2ncccc2-c2ncnc(Nc3cccc(Cn4ccnn4)c3)n2)cc1 [Compound 1102]
7 | 1.04 to 6.24 µM | < 1.04 µM | < 1.04 µM | > 11.7 µM | 9.1 to 11.7 µM | > 11.7 µM | 9.1 to 11.7 µM | 9.1 to 11.7 µM | 1.04 to 6.24 µM | > 11.7 µM | OCc1cccc(Nc2ncnc(-c3cccnc3NCc3ccccc3)n2)c1 [Compound 1103]
8 | > 11.2 µM and 0.994 to 5.96 µM | < 0.994 µM | < 0.994 µM | > 11.2 µM and 8.7 to 11.2 µM | > 11.2 µM and 0.994 to 5.96 µM | > 11.2 µM and 8.7 to 11.2 µM | 8.7 to 11.2 µM and > 11.2 µM | > 11.2 µM | > 11.2 µM and 0.994 to 5.96 µM | > 11.2 µM | OCc1cccc(Nc2ncnc(-c3cccnc3NCc3ccc(F)cc3)n2)c1 [Compound 1104]
